Results on two compounds are retold here after patent EP4122917A1, “C2-THIOETHER […] AND TETRAMERS AND USE THEREOF” (priority 2021, dated 2023).

Each structure is given as a SMILES string.

In this assay the test system is SARS-CoV-2 virus carrying the D614G mutation in the S protein. The format is cell-based. To be noted: read-out: IC50 (µM) SARS-CoV-2 (Vero E6).

With `NCC(=O)NC(CCC(=O)N[C@@H](Cc1c(Sc2ccc([N+](=O)[O-])cc2)[nH]c2ccccc12)C(=O)O)(CCC(=O)N[C@@H](Cc1c(Sc2ccc([N+](=O)[O-])cc2)[nH]c2ccccc12)C(=O)O)CCC(=O)N[C@@H](Cc1c(Sc2ccc([N+](=O)[O-])cc2)[nH]c2ccccc12)C(=O)O` [Compound 7a], the IC50 (commonly the point on the concentration scale where inhibition reaches its midpoint) came out at 3.02 µM.
The result for `CC(=O)c1ccc(Sc2[nH]c3ccccc3c2C[C@H](NC(=O)CCC(CCC(=O)N[C@@H](Cc2c(Sc3ccc(C(C)=O)cc3)[nH]c3ccccc23)C(=O)O)(CCC(=O)N[C@@H](Cc2c(Sc3ccc(C(C)=O)cc3)[nH]c3ccccc23)C(=O)O)NC(=O)CN)C(=O)O)cc1` [Compound 7c] reads 13.3 µM.
